Experimental data as given in US10583206B2, “Radioactive probe for detecting hydrogen sulfide” (KYUNGPOOK NATIONAL UNIVERSITY INDUSTRY-ACADEMIC COOPERATION …, priority 2015, dated 2020).

Key:
[1] = Test of hydrogen sulfide detection sensitivity (% decomplexation with NaHS, radio-TLC); assay type: physicochemical; details: for % decomplexation against 100 μM NaHS solution: Table 3; for % decomplexation: 37° C. for 15 minutes
Method: To measure hydrogen sulfide detection sensitivity of the ^64Cu-labeled complex compound according to the present disclosure, the following experiment was performed.
About 45 μCi-55 μCi of ^64Cu-labeled complex compound (250 μL of triple distilled water) was mixed with various concentrations of NaHS solution (250 µL of triple distilled water), and stirred at 37° C. for 15 minutes (a total volume used in the reaction was equally 500 μL). After completion of the reaction, the resulting products were strongly stirred to mix appropriately.
Formation of copper sulfide (^64CuS) was confirmed by quantification of % decomplexation by using a radio-TLC scanner, and results are shown in the following Tables 2 and 3.

[2] = test system: Paw inflammation model; assay type: in vivo, Balb/c or ICR mice
Method: (1) Paw Pain Inflammation Model
A small amount of CFA (complete Freund's adjuvant) or formalin was injected into only one paw (right) of the hind paws of Balb/c or ICR mice to establish inflammation models. 1 day after injection of the inflammation inducer, the mice were used in imaging or other in vivo experiments.
It is a known fact that inflamed sites show high concentrations of hydrogen sulfide.
Nuclear medicine imaging was measured by using an Inveon PET/CT system of Siemens Healthcare, and optical imaging was measured by using IVIS spectrum CT equipment. Cherenkov radiation emitted from ^64Cu was measured by using a highly sensitive CCD (charge-coupled device) camera.
Imaging was measured for 1 minute to 5 minutes, and a radiation dose was about 50 μCi to 2000 μCi, and photographs were variously taken as needed, such as immediately after first injection, at 1 hour, 4 hours, and 24 hours later.

[3] = Hydrogen sulfide selectivity test: decomplexation by L-AsA; assay type: physicochemical; details: L-ascorbic acid; 100 μM or (L-AsA, 10 mM); 37° C. for 15 minutes
Method: (§1) In addition to hydrogen sulfide, many different anions, radicals, etc. exist in the body. Therefore, to examine selective reactivity of the ^64Cu-labeled complex compound according to the present disclosure for sulfide ions, the following experiment was performed.
(§2) About 45 μCi-55 μCi of the ^64Cu-labeled complex compound (250 μL of triple distilled water) was mixed with 100 μM of various anion solutions (250 μL of triple distilled water) including biothiol, and stirred at 37° C. for 15 minutes.
(§3) Formation of copper sulfide (^64CuS) was quantified by using a radio-TLC scanner.
(§4) Various biothiol or salt solutions were prepared by dissolving the compounds in triple distilled water.
(§5) In Table, concentrations of all biothiols and other competitive materials are 100 μM. Further, specific concentrations of biothiols, anions, and oxidants used in Table are as follows: [L-Cys (1 mM); L-Hcys (10 mM); GSH (10 mM); DL-dithiothretitol (DTT, 100 μM); L-ascorbic acid (L-AsA, 10 mM); 2-mercaptoethanol (2-ME, 10 mM); NaCl (10 mm); KI (1 mM); Na2S2O3 (1 mM); Na2S2O5 (1 mM); NaOAc (1 mM); H2O2 ([…]); NaClO4 (100 μM); NaHCO3 (100 μM); NaNO2 ([…]); NaN3 (100 μM); ATB 337 (100 μM); diallyl trisulphide (100 μM)].

[4] = Hydrogen sulfide selectivity test: decomplexation by Na2S2O5; assay type: physicochemical; details: 100 μM or (1 mM), 37° C. for 15 minutes
Method: as §1, §2, §3, §4, §5

[5] = Hydrogen sulfide selectivity test: decomplexation by GSH; assay type: physicochemical; details: 100 μM or GSH (10 mM), 37° C. for 15 minutes
Method: as §1, §2, §3, §4, §5

[6] = Hydrogen sulfide selectivity test: decomplexation by NaClO4; assay type: physicochemical; details: NaClO4 (100 μM); 37° C. for 15 minutes
Method: as §1, §2, §3, §4, §5

[7] = Hydrogen sulfide selectivity test: decomplexation by NaNO2; assay type: physicochemical; details: NaNO2 (100 µM); 37° C. for 15 minutes
Method: as §1, §2, §3, §4, §5

[8] = Hydrogen sulfide selectivity test: decomplexation by H2O2; assay type: physicochemical; details: H2O2 (100 µM); 37° C. for 15 minutes
Method: as §1, §2, §3, §4, §5

[9] = Hydrogen sulfide selectivity test: decomplexation by Cys; assay type: physicochemical; details: 100 μM or L-Cys (1 mM), 37° C. for 15 minutes
Method: as §1, §2, §3, §4, §5

[10] = Hydrogen sulfide selectivity test: decomplexation by NaCl; assay type: physicochemical; details: 100 μM or NaCl (10 mm), 37° C. for 15 minutes
Method: as §1, §2, §3, §4, §5

[11] = Hydrogen sulfide selectivity test: decomplexation by DAT (diallyl trisulphide); assay type: physicochemical; details: DAT = diallyl trisulphide (100 μM); 37° C. for 15 minutes
Method: as §1, §2, §3, §4, §5

[12] = Hydrogen sulfide selectivity test: decomplexation by ME; assay type: physicochemical; details: 2-mercaptoethanol; 100 μM or (2-ME, 10 mM); 37° C. for 15 minutes
Method: as §1, §2, §3, §4, §5

[13] = Hydrogen sulfide selectivity test: decomplexation by NaN3; assay type: physicochemical; details: NaN3 (100 μM); 37° C. for 15 minutes
Method: as §1, §2, §3, §4, §5

[14] = Hydrogen sulfide selectivity test: decomplexation by DTT; assay type: physicochemical; details: DL-dithiothretitol (DTT, 100 μM); 37° C. for 15 minutes
Method: as §1, §2, §3, §4, §5

[15] = Hydrogen sulfide selectivity test: decomplexation by ATB 337; assay type: physicochemical; details: ATB 337 (100 μM); 37° C. for 15 minutes
Method: as §1, §2, §3, §4, §5

[16] = Hydrogen sulfide selectivity test: decomplexation by NaHCO3; assay type: physicochemical; details: NaHCO3 (100 μM); 37° C. for 15 minutes
Method: as §1, §2, §3, §4, §5

[17] = Hydrogen sulfide selectivity test: decomplexation by Na2S2O3; assay type: physicochemical; details: 100 μM or (1 mM), 37° C. for 15 minutes
Method: as §1, §2, §3, §4, §5

[18] = Hydrogen sulfide selectivity test: decomplexation by NaOAc; assay type: physicochemical; details: 100 μM or (1 mM), 37° C. for 15 minutes
Method: as §1, §2, §3, §4, §5

[19] = Hydrogen sulfide selectivity test: decomplexation by Hcys; assay type: physicochemical; details: 100 μM or L-Hcys (10 mM), 37° C. for 15 minutes
Method: as §1, §2, §3, §4, §5

[20] = Hydrogen sulfide selectivity test: decomplexation by Kl; assay type: physicochemical; details: 100 μM or KI (1 mM), 37° C. for 15 minutes
Method: as §1, §2, §3, §4, §5

[21] = Test of hydrogen sulfide detection over time (^64CuS formation, radio-TLC); assay type: physicochemical; set-up: unit not given here; details: 100 μM NaHS, 37° C.
Method: To examine reactivity of the ^64Cu-labeled complex compound according to the present disclosure over time, the following experiment was performed.
A detailed experimental method is as follows.
About 45 μCi-50 μCi of ^64Cu-labeled complex compound (250 μL of triple distilled water) was mixed with 100 μM of NaHS solution ([…] of triple distilled water), and stirred at 37° C. for 15 minutes. Formation of copper sulfide (^64CuS) was quantified by using a radio-TLC scanner.

[22] = test system: Myocardial infarction model; experiment: Imaging study in myocardial infarction model (PET); assay type: in vivo, Sprague-Dawley rats; details: PET imaging after injection
Source text: (2) Myocardial Infarction Model
A myocardial infarction model was established by using Sprague-Dawley rats (12-week-old or older, about 250 g). 2 days later after induction of myocardial infarction by occlusion of the coronary arteries in the heart, the rats were used in imaging tests. It is a known fact that myocardial infarction sites show high concentrations of hydrogen sulfide.
It is known that myocardial infarction sites show high concentrations of hydrogen sulfide. Thus, after induction of myocardial infarction by coronary artery occlusion in rats, 50 μCi-900 μCi of the ^64Cu-labeled complex compound was injected via the tails of the rats, and uptake in the myocardial infarction site was examined over time by PET imaging.
36 hours after establishment of the myocardial infarction model, 730 μCi of the radioisotope-labeled complex compound of the present disclosure was injected and nuclear medicine imaging was performed. 2 days later, […] of FDG was injected into the same rat, and then FDG-PET images were obtained. Results are shown in FIGS. 15 to 17 (in the nuclear medicine imaging, the upper image represents a transverse image, and the lower image represents a coronal image).

## C/C(=N\O)[C@@H](C)NCC(C)(C)CN[C@H](C)/C(C)=N/O [Example 26]
[1]
  % decomplexation against 100 μM NaHS solution: 62.43 ± 0.87%

## C1CNCCN2CCCNCCN(C1)CCC2 [Example 25]
[1]
  % decomplexation against 100 μM NaHS solution: 0%

## CC1CC[N]2C3CCCCC3[N]3C(C)CC[N]4C5CCCCC5[N]1[64Cu]423 (stereo not shown) [Example 9]
[2]; optical and nuclear medicine imaging performed 2 hours later
  uptake in inflamed paw versus opposite paw: higher uptakes

## C1C[SH]2CC[SH]3CC[SH]4CC[N]1[64Cu]243 (stereo not shown) [Example 23]
[1]
  % decomplexation against 100 μM NaHS solution: 78.3 ± 2.6%
[1]; NaHS 0 μM
  % decomplexation: 0%
[1]; NaHS 1 μM
  % decomplexation: 0%
[1]; NaHS 10 μM
  % decomplexation: 0%
[1]; NaHS 15 μM
  % decomplexation: 36.4%
[1]; NaHS 20 μM
  % decomplexation: 49.4%
[1]; NaHS 50 μM
  % decomplexation: 67.7%
[1]; NaHS 100 μM
  % decomplexation: 78.2%
[3]
  Decomplexation [%]: 0.4%
[4]
  Decomplexation [%]: 0.6%
[5]
  Decomplexation [%]: 0.7%
[6]
  Decomplexation [%]: 0.8%
[7]
  Decomplexation [%]: 0.6%
[8]
  Decomplexation [%]: 0.3%
[9]
  Decomplexation [%]: 0.5%
[10]
  Decomplexation [%]: 0.5%
[11]
  Decomplexation [%]: 0.4%
[12]
  Decomplexation [%]: 0.5%
[13]
  Decomplexation [%]: 0.8%
[14]
  Decomplexation [%]: 0.4%
[15]
  Decomplexation [%]: 0.6%
[16]
  Decomplexation [%]: 0.1%
[17]
  Decomplexation [%]: 0.2%
[18]
  Decomplexation [%]: 0.3%
[19]
  Decomplexation [%]: 0.4%
[20]
  Decomplexation [%]: 0.2%

## [64Cu+2].c1ccc2c(CN3CCNCCNCCNCC3)c3ccccc3cc2c1 [Example 2]
[1]; NaHS 0 μM
  % decomplexation: 0%
[1]; NaHS 1 μM
  % decomplexation: 0%
[1]; NaHS 10 μM
  % decomplexation: 0%
[1]; NaHS 15 μM
  % decomplexation: 0%
[1]; NaHS 20 μM
  % decomplexation: 15%
[1]; NaHS 50 μM
  % decomplexation: 56%
[1]; NaHS 100 μM
  % decomplexation: 100%
[2]; optical imaging and nuclear medicine imaging
  selective uptake in inflamed sites: selective uptake
[21]; 10 sec
  Formation of copper sulfide (^64CuS) over time: 21
[21]; 30 sec
  Formation of copper sulfide (^64CuS) over time: 22
[21]; 60 sec
  Formation of copper sulfide (^64CuS) over time: 33
[21]; 5 min
  Formation of copper sulfide (^64CuS) over time: 82
[21]; 10 min
  Formation of copper sulfide (^64CuS) over time: 100
[21]; 15 min
  Formation of copper sulfide (^64CuS) over time: 100

## CN1CCCNCCNCCNCC1.[64Cu+2] [Example 24]
[1]
  % decomplexation against 100 μM NaHS solution: 0%

## C1C[N]2CC[N]3CC[N]4CC[N](C1)[64Cu]234 [Example 16, ^64Cu-labeled cyclam]
[1]; NaHS 0 μM
  % decomplexation: 0%
[1]; NaHS 1 μM
  % decomplexation: 0%
[1]; NaHS 10 μM
  % decomplexation: 0%
[1]; NaHS 15 μM
  % decomplexation: 0%
[1]; NaHS 20 μM
  % decomplexation: 0%
[1]; NaHS 50 μM
  % decomplexation: 1.3%
[1]; NaHS 100 μM
  % decomplexation: 10.5%
[3]
  Decomplexation [%]: 0.7 ± 0.2%
[4]
  Decomplexation [%]: 0.5 ± 0.0%
[5]
  Decomplexation [%]: 0.8 ± 0.2%
[6]
  Decomplexation [%]: 0.6 ± 0.1%
[7]
  Decomplexation [%]: 0.5 ± 0.1%
[8]
  Decomplexation [%]: 0.7 ± 0.2%
[22]
  uptake / visualisation of the myocardial infarction site: no specific uptake was observed in the heart
[2]; mouse, in vivo
  difference between inflamed and normal paws: no obvious difference in the inflamed and normal paws
  uptake compared to injection of the same quantity of ^64Cu-labeled cyclen of Example 1: low uptake
[9]
  Decomplexation [%]: 0.7 ± 0.2%
[10]
  Decomplexation [%]: 0.7 ± 0.0%
[12]
  Decomplexation [%]: 0.5 ± 0.6%
[21]; 10 sec
  Formation of copper sulfide (^64CuS) over time: 0
[21]; 30 sec
  Formation of copper sulfide (^64CuS) over time: 0
[21]; 60 sec
  Formation of copper sulfide (^64CuS) over time: 0
[21]; 5 min
  Formation of copper sulfide (^64CuS) over time: 3
[21]; 10 min
  Formation of copper sulfide (^64CuS) over time: 5
[21]; 15 min
  Formation of copper sulfide (^64CuS) over time: 10
[13]
  Decomplexation [%]: 0.7 ± 0.1%
[14]
  Decomplexation [%]: 0.8 ± 0.0%
[15]
  Decomplexation [%]: 0.6 ± 0.0%
[16]
  Decomplexation [%]: 0.5 ± 0.1%
[17]
  Decomplexation [%]: 0.8 ± 0.1%
[18]
  Decomplexation [%]: 0.8 ± 0.0%
[19]
  Decomplexation [%]: 0.7 ± 0.0%
[20]
  Decomplexation [%]: 0.7 ± 0.0%

## OC[C@H]1O[C@@H](O)[C@H]([18F])[C@@H](O)[C@@H]1O [FDG, reference compound]
[22]
  uptake / visualisation of the myocardial infarction site: uptake did not occur in the myocardial infarction site

## c1ccc(CNCc2ccccn2)nc1 [Example 33]
[1]
  % decomplexation against 100 μM NaHS solution: 26.6%
